Experimental findings from patent publication US9988378B2, “1 H-pyrazole and 4,5-disubstituted thiazole inhibitors of SYK” (Hoffmann-La Roche Inc., priority 2012, dated 2018) are described below.

Test [1] addresses T1, recombinant human SYK360-635 (Homo sapiens, UniProt P43405).
T1 construct: truncated construct of Spleen Tyrosine Kinase aa 360-635; made in house
Kind of test: SYK kinase assay, 33P ATP filtration (ENZYME_FILTRATION_IC50). In kind it is biochemical. The settings on record: SYK aa 360-635 0.5 nM, ATP 20 μM, peptide 5 μM, 30° C. 15 min. As for the experimental part:
Determination of IC50 of Spleen Tyrosine Kinase (SYK) Inhibition:
SYK kinase assay is a standard kinase assay adapted to a 96 well plate format. This assay is performed in 96-well format for IC50 determination with […] which represented 10 half log dilutions and a 40 μL reaction volume. The assay measures the incorporation of radiolabeled ^33P ATP into an N-terminally biotinylated peptide substrate, derived from naturally occurring phosphoacceptor consensus sequence (Biotin-11aa DY*E). Phosphorylated products were detected upon termination of reactions with EDTA and the addition of Streptavidin coated beads. Representative results are in Table II above.
Assay plates: 96-well MultiScreen 0.65 um filter plates (Millipore Cat. No.: MADVNOB10) Streptavidin coated beads: Streptavidin Sepharose™, suspension 5.0 mL, in 50 mM EDTA/PBS diluted (1:100), (Amersham, Cat. No.: 17-5113-01)
Compounds: 10 mM in 100% dimethylsulfoxide (DMSO), final conc.: compound 0.003-100 uM in 10% DMSO
Enzyme: SYK RPA purified, truncated construct of Spleen Tyrosine Kinase aa 360-635, stock solution 1 mg/mL, MW: 31.2 KDa, final conc.:0.0005 μM.
Peptide 1: biotinylated peptide is derived from a naturally occurring phosphor-acceptor consensus sequence (Biotin-EPEGDYEEVLE), special order from QCB, stock solution 20 mM, final conc.: 5.0 μM.
ATP: Adenosine-5′-triphosphate 20 mM, (ROCHE Cat. No.: 93202720), final concentration: 20 μM
Buffer: HEPES: 2-Hydroxyethyl piperazine-2-ethanesulfonic acid (Sigma, Cat. No.: H-3375) final concentration: 50 mM HEPES pH7.5
BSA: Bovine Serum Albumin Fraction V, fatty acid free (Roche Diagnostics GmbH, Cat. No. 9100221) diluted to a final concentration of 0.1%
EDTA: EDTA stock solution 500 mM, (GIBCO, Cat. No.: 15575-038) final concentration: 0.1 mM
DTT: 1,4-Dithiothreitol (Roche Diagnostics GmbH, Cat. No.: 197777), final conc.: 1 mM MgCl2×6H2O: MERCK, Cat. No.: 105833.1000, final concentration: 10 mM
Assay Dilution Buffer (ADB): 50 mM HEPES, 0.1 mM EGTA, 0.1 mM Na Vanadate, 0.1 mM β-glycerophosphate, 10 mM MgCl2, 1 mM DTT, 0.1% BSA, pH 7.5
Bead wash buffer: 10 g/L PBS (Phosphate buffered saline) with 2M NaCl+1% phosphoric acid.
In 40 μL volume, 26 μL of ADB diluted, purified recombinant human SYK360-635 [0.5 nM] was mixed with 4 μL of 10× concentrations of the test compounds, [usually 100 μM-0.003 μM] in [10%] DMSO and the mixture was incubated for 10 min at RT.
The kinase reaction was initiated by the addition of 10 μL 4× substrate cocktail containing the DYE peptide substrate [0 or 5 μM], ATP [20 μM] and ^33PγATP [2 μCi/rxn]. After incubation at 30° C. for 15 min, the reaction was terminated by the transfer of 25 μL pf the reaction sample to a 96 well 0.65 μm Millipore MADVNOB membrane/plate containing 200 μL 5 mM EDTA and 20% Streptavidine coated beads in PBS.
The unbound radionucleotides were washed under vacuum with 3×250 μL 2M NaCl; 2×250 μL 2M NaCl+1% phosphoric acid; 1×250 μL H2O. After the last wash membrane/plates were transferred to an adaptor plate, heat dried for 15 min at 60° C., and 50 μL scintillation cocktail was added to each well and 4 h later the amount of radioactivity was counted in a top counter.
The percent inhibition was calculated based on the uninhibited enzyme rate: % Inhibition=100/(1+(IC50/Inhibitor conc)^n)
The IC50 was calculated using a non-linear curve fit with XLfit software (ID Business Solution Ltd., Guilford, Surrey, UK).

The test system of a further test is RAMOS. Description: RAMOS_V2_IC50. Format: cell-based. Particulars: Homo sapiens.
The subject of the next test is human whole blood. Kind of test: IC50: human whole blood. Format: cell-based.

What is called IC50 is the concentration needed to halve the response being measured. In the case of `CC(C)(CO)NC(=O)c1c[nH]nc1-c1nc2ccccc2s1` [Compound I-7, 3-(benzo[d]thiazol-2-yl)-N-(1-hydroxy-2-methylpropan-2-yl)-1H-pyrazole-4-carboxamide], the concentration for half-maximal inhibition (IC50) in test [1] was determined as 562 nM; in the test on RAMOS, 552 nM; with human whole blood, 20400 nM.

Regarding `CC(C)(C)NC(=O)c1c[nH]nc1-c1nc2ccccc2s1` [Compound I-8, 3-(benzo[d]thiazol-2-yl)-N-tert-butyl-1H-pyrazole-4-carboxamide], the IC50 in test [1] was 67 nM; with RAMOS, 146 nM; in the test on human whole blood it was 46700 nM.

Take `C[C@@H](CO)NC(=O)c1c[nH]nc1-c1nc2ccccc2s1` [Compound I-12, (S)-3-(benzo[d]thiazol-2-yl)-N-(1-hydroxypropan-2-yl)-1H-pyrazole-4-carboxamide]: the IC50 was determined as 1690 nM in test [1], 4070 nM with RAMOS and 13100 nM in the test on human whole blood.

On to `CCOC(=O)c1c[nH]nc1-c1nc(-c2ccccc2)cs1` [Compound I-13, ethyl 3-(4-phenylthiazol-2-yl)-1H-pyrazole-4-carboxylate], for which the values for the IC50 (in test [1]; in the test with RAMOS; with human whole blood) were over 10000 nM, over 34100 nM and over 50000 nM, respectively.

For `CC(C)(C)NC(=O)c1c[nH]nc1-c1nc(-c2ccccc2)cs1` [Compound I-16, N-tert-butyl-3-(4-phenylthiazol-2-yl)-1H-pyrazole-4-carboxamide], the IC50 in test [1] was 2410 nM; in the test on RAMOS it was 12200 nM; in the test with human whole blood it was over 50000 nM.

In the case of `CC(C)NC(=O)c1c[nH]nc1-c1nc(-c2ccccc2)cs1` [Compound I-17, N-isopropyl-3-(4-phenylthiazol-2-yl)-1H-pyrazole-4-carboxamide], the results for the IC50 (in test [1]; in the test with RAMOS; with human whole blood) were 761 nM, 3540 nM and over 50000 nM, respectively.

Regarding `CC(C)(C)NC(=O)c1c[nH]nc1-c1nc2c(s1)CCC2` [Compound I-18, N-tert-butyl-3-(5,6-dihydro-4H-cyclopenta[d]thiazol-2-yl)-1H-pyrazole-4-carboxamide], the IC50 is 6120 nM in test [1], over 34100 nM in the test with RAMOS and over 50000 nM with human whole blood.

Turning to `O=C(NC1CCOCC1)c1c[nH]nc1-c1nc(-c2ccccc2)cs1` [Compound I-21, 3-(4-phenylthiazol-2-yl)-N-(tetrahydro-2H-pyran-4-yl)-1H-pyrazole-4-carboxamide], the 50% inhibitory concentration (IC50) in test [1] is 209 nM; with RAMOS, 19100 nM; in the test with human whole blood, over 50000 nM.

On to `Cc1ccc2[nH]c(-c3ncsc3C(=O)NC(C)(C)C)nc2c1` [Compound I-29, 4-(5-Methyl-1H-benzoimidazol-2-yl)-thiazole-5-carboxylic acid tert-butylamide], for which the IC50 in test [1] is 46.6 nM; with RAMOS, 1520 nM; in the test on human whole blood it was 10400 nM.

Consider `CC(C)C(=O)Nc1c[nH]nc1-c1nc2ccccc2[nH]1` [Compound I-30, N-[3-(1H-Benzoimidazol-2-yl)-1H-pyrazoll-4-yl]-isobutyramide], for which the IC50 in test [1] stood at 60 nM; in the test on RAMOS, 1020 nM; in the test with human whole blood, 2290 nM.

Take `CC(C)(C)C(=O)Nc1c[nH]nc1-c1nc2ccccc2[nH]1` [Compound I-31, N-[3-(1H-Benzoimidazol-2-yl)-1H-pyrazol-4-yl]-2,2-dimethyl-propionamide]: the results for the IC50 (in test [1]; in the test with RAMOS; with human whole blood) were 21.4 nM, 350 nM and 2600 nM, respectively.

On to `O=C(Nc1c[nH]nc1-c1nc2ccccc2[nH]1)C1CCCC1` [Compound I-32, Cyclopentanecarboxylic acid [3-(1H-benzoimidazol-2-yl)-1H-pyrazol-4-yl]-amide], for which the IC50 came to 38.9 nM in test [1], 615 nM in the test with RAMOS and 5270 nM in the test with human whole blood.

Consider `O=C(Nc1c[nH]nc1-c1nc2ccccc2[nH]1)C1CCOCC1` [Compound I-33, Tetrahydro-pyran-4-carboxylic acid [3-(1H-benzoimidazol-2-yl)-1H-pyrazol-4-yl]-amide], for which the IC50 in test [1] was determined as 105 nM; in the test with RAMOS, 3080 nM; in the test on human whole blood, 2500 nM.

With `CC(=O)OCC(C)(C)C(=O)Nc1c[nH]nc1-c1nc2ccccc2[nH]1` [Compound I-34, Acetic acid 2-[3-(1H-benzoimidazol-2-yl)-1H-pyrazol-4-ylcarbamoyl]-2-methyl-propyl ester], the IC50 in test [1] was determined as 278 nM; in the test on RAMOS it was 6570 nM; in the test with human whole blood, 4170 nM.

Take `CC(C)(CO)C(=O)Nc1c[nH]nc1-c1nc2ccccc2[nH]1` [Compound I-35, N-[3-(1H-Benzoimidazol-2-yl)-1H-pyrazol-4-yl]-3-hydroxy-2,2-dimethyl-propionamide]: the IC50 in test [1] was 54.9 nM; with RAMOS, 920 nM; in the test with human whole blood, 1920 nM.

In the case of `CC(C)(CO)NC(=O)c1c[nH]nc1-c1nc2ccccc2[nH]1` [Compound I-39, 3-(1H-Benzoimidazol-2-yl)-1H-pyrazole-4-carboxylic acid (2-hydroxy-1,1-dimethyl-ethyl)-amide], the figures for the half-inhibitory concentration (IC50) in the test with RAMOS and with human whole blood were 986 nM and 2870 nM, respectively.
